Tests used:
[1] = Serum CPX pharmacokinetics in mice after single IV or oral dose, quantified by NMR; type: in vivo
Procedure: (§1) The compound ciclopirox (CPX, 6-cyclohexyl-1-hydroxy-4-methyl-2(1H)-pyridinone) was purchased from Santa Cruz Biotechnology (sc-204688), and phosphorylated ciclopirox (CPXpom, O-phosphoryl-methylen-6-cyclohexyl-1-hydroxy-4-metyl-2(1H)-Pyridinone) was synthetized by Charnwood Molecular Ltd. PD of CPX was studied in HEK CRISPR Cas UROIIIS-C73R and UROIIIS-P248Q cell lines. Briefly, 60 µM dose of CPX and phosphorylated CPX was administrated for 30 min and 1, 2, and 4 h of exposition. Then, the cells were counted and harvested. Samples were treated by the same protocol for the porphyrin extraction. Mouse experiments. For the PK experiments and for each bolus administration method 10 WT ICR (CD-1®) outbred mice (Envigo) were used. Serum was collected after the administration at 1, 2, 4, 6 (7), 12, and 24 h. At 48 (36) h, the mice were sacrificed. Triplicates were collected for each data point. […] In the PD experiments, the concentration of porphyrins was measured from circulating blood. […]
NMR data were collected at on an 800-MHz Bruker Avance III spectrometer equipped with a cryoprobe and on a 600-MHz Bruker Avance III US2 spectrometer. […] Metabolic quantification was carried out at peaks’ integral against the added internal reference compound. […]
Non-compartmental serum and urine pharmacokinetic parameters for CPXpom and CPX were determined using SimBiology module in MATLAB. […]

[2] = set-up: method as in PMID 2989308; conditions: weak acidic N-hydroxyl group of the 1-hydroxy-2(1H)-pyridones; cited from earlier work
murine models of CEP = test system: murine models of CEP; set-up: method as in PMID 30232228; conditions: cited from earlier work
[3] = test system: HEK CRISPR Cas UROIIIS-P248Q cell line; test: URO I levels in HEK CRISPR/Cas9 cellular model of CEP (UROIIIS-P248Q), HPLC; type: cell-based; conditions: UROIIIS^P248Q HEK cells; 60 µM
Procedure: as §1, with “used.” for “used. Serum was collected after the administration at 1, 2, 4, 6 (7), 12, and 24 h. At 48 (36) h, the mice were sacrificed. Triplicates were collected for each data point.”
(§2) Murine blood samples were obtained from the submandibular vein and collected in ethylenediaminetetraacetic acid tubes; samples were aliquoted and stored in a freezer at −80 °C. […] The samples were then analyzed by HPLC.
(§3) Porphyrins from cell lines were separated by HPLC analysis on a ODS Hypersil C18 column (5 µm, 3 mm × 200 mm; Thermo Scientific, Waltham, MA, US) in a HPLC chromatograph (Shimadzu, Long Beach, CA, US). […] All analyses were performed at 20 °C, and porphyrins were detected by fluorescence with an excitation wavelength 405 nm and emission wavelength 610 nm. […]

[4] = GI toxicity in WT mice after administration of CPX or CPXpom; type: in vivo; conditions: for macroscopic inflammation of the gut: mice, Figure 1; for GI toxicity: 100 mg/kg
[5] = test system: HEK CRISPR Cas UROIIIS-C73R cell line; test: URO I levels in HEK CRISPR/Cas9 cellular model of CEP (UROIIIS-C73R), HPLC; type: cell-based; conditions: UROIIIS^C73R HEK cells; 60 µM; 30 min to 4 h
Procedure: as §1, with “used.” for “used. Serum was collected after the administration at 1, 2, 4, 6 (7), 12, and 24 h. At 48 (36) h, the mice were sacrificed. Triplicates were collected for each data point.”
as §2, §3

[6] = test system: mouse model of the disease (UROIIIS^P248Q/P248Q); test: Oral gavage for 30 days in mouse model of CEP; type: in vivo; conditions: UROIIIS^P248Q/P248Q mice; for reduction in total UROI levels in serum: oral gavage, after 30 days, equivalent dose
Procedure: The compound ciclopirox (CPX, 6-cyclohexyl-1-hydroxy-4-methyl-2(1H)-pyridinone) was purchased from Santa Cruz Biotechnology (sc-204688), and phosphorylated ciclopirox (CPXpom, O-phosphoryl-methylen-6-cyclohexyl-1-hydroxy-4-metyl-2(1H)-Pyridinone) was synthetized by Charnwood Molecular Ltd. PD of CPX was studied in HEK CRISPR Cas UROIIIS-C73R and UROIIIS-P248Q cell lines. Briefly, 60 µM dose of CPX and phosphorylated CPX was administrated for 30 min and 1, 2, and 4 h of exposition. Then, the cells were counted and harvested. Samples were treated by the same protocol for the porphyrin extraction. Mouse experiments. For the PK experiments and for each bolus administration method 10 WT ICR (CD-1®) outbred mice (Envigo) were used. Serum was collected after the administration at 1, 2, 4, 6 (7), 12, and 24 h. At 48 (36) h, the mice were sacrificed. Triplicates were collected for each data point. Urine samples were collected at the same interval. In the PD experiments, the concentration of porphyrins was measured from circulating blood. Blood samples were extracted from the submandibular vein every week, and mice were weighed before each extraction. Mice were treated with oral CPX by gavage to evaluate CPX dose efficiency. […] All work performed with animals was approved by the competent authority (Diputación Foral de Bizkaia) following European and Spanish directives. The CIC bioGUNE Animal Facility is accredited by AAALAC Intl.
as §2, §3

[7] = set-up: method as in PMID 7028047; conditions: rats; 4 weeks; doses up to 300 mg/kg; cited from earlier work
[8] = set-up: method as in PMID 7197542; conditions: oral; 1 mg/kg rats, 10-15 mg/kg dogs; cited from earlier work
[9] = test system: cellular models of the disease, obtained from HEK cells by CRISPR/Cas9 editing; test: Equivalent cellular studies in cellular models of CEP (data not shown); type: cell-based
Text: We first tested the derivatives on different cellular models of the disease, obtained from HEK cells by CRISPR/Cas9 editing. The selected mutations (UROIIIS^C73R and UROIIIS^P248Q) result in destabilized proteins and severe phenotypes. […] Thus, the reported activity for CPXpom is attributed to a proper hydrolysis of the compound into the active species.

Cc1cc(C2CCCCC2)n(O)c(=O)c1 [CPX, 6-cyclohexyl-1-hydroxy-4-methyl-2(1H)-pyridinone]
CPXFREE ([1]; Table S3, serum, IV, dose 10 mg/kg, CPXfree = CPXtot − CPXglu): < 21.4%
pK [2]: 7
splenomegaly (murine models of CEP; indirect measure of reduction in circulating porphyrins): reduced splenomegaly
levels of the toxic porphyrins, particularly URO I and COPRO I (murine models of CEP; liver, red blood cells, and urine): significant decrease
levels of the toxic by-product URO I [3]: significantly reduced
macroscopic inflammation of the gut [4]: Macroscopic inflammation can be observed
GI toxicity ([4]; mouse, in vivo, po): results in GI toxicity
levels of the toxic by-product URO I [5]: significantly reduced
reduction in total UROI levels in serum [6]: 40%

Cc1cc(C2CCCCC2)n(OCOP(=O)(O)O)c(=O)c1 [CPXpom, O-phosphoryl-methylen-6-cyclohexyl-1-hydroxy-4-metyl-2(1H)-Pyridinone]
circulating concentration of CPXpom (NMR spectrum of serum) ([1]; after CPXpom administration): below the detection limit
levels of the toxic by-product URO I [3]: significantly reduced
GI toxicity ([4]; WT mice, oral (gavage)): does not result in GI toxicity
macroscopic inflammation of the gut [4]: no macroscopic inflammation
levels of the toxic by-product URO I [5]: significantly reduced
reduction in total UROI levels in serum [6]: 5%
GI toxicity ([6]; orally by gavage for 30 days): no GI toxicity was observed

Cc1cc(C2CCCCC2)n(O)c(=O)c1 [ciclopirox-olamine]
gastric findings [7]: gastric irritation and chronic gastritis
elimination in urine (time) [8]: 3 to 6 h

NC(Cn1ccc(=O)c(O)c1)C(=O)O (stereo not shown) [mimosine]
activity in cellular models of CEP [9]: no activity
